The values below come from patent US10662229B2, “Spider venom peptides and methods of use for modulating sodium channels” (priority 2016, dated 2020).

The term IC50 denotes the point on the concentration scale where inhibition reaches its midpoint. A lower IC50 goes with greater potency in that assay.

The target in test [1] is T1, hNav1.3 (Homo sapiens, UniProt Q9NY46).
T1 construct: host or cells: HEK293
The test is described as follows: FLIPR membrane potential assay, hNav1.3. In kind it is cell-based. The method, boiled down:
(§1)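 Stable HEK293 lines, one per hNav isoform; red membrane potential dye, 30 min, 37° C; FLIPR^TETRA read at 1 s intervals over 300 s post-agonist.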

Test [2] concerns the target T2, hNav1.8 (Homo sapiens, UniProt Q9Y5Y9).
T2 construct: host or cells: HEK293
The test is described as follows: FLIPR membrane potential assay, hNav1.8. The format is cell-based. The method, boiled down: as §1

Test [3] deals with T3, hNav1.2 (Homo sapiens, UniProt Q99250).
T3 construct: host or cells: HEK293
The test is described as follows: Automated patch clamping (QPatch-16), hNav1.2. In kind it is cell-based. The method, then: (§2) HEK293 cells stably expressing hNav1.1-1.7 or CHO cells stably expressing hNav1.8 (as described in Example 3 above) were cultured in a T-175 flask in selection antibiotic-free media at 37° C. Cells were grown to 70-80% confluence and harvested using Detachin (Bio-Scientific, NSW, Australia) at 37° C. for 2 min. Dissociated cells were then resuspended in Ex-Cell ACF CHO Medium with HEPES (25 mM; Sigma-Aldrich Co.) and allowed to recover on the QStirrer for 30 min.
(§3) The extracellular solution contained in mM: NaCl 145, KCl 4, CaCl2 2, MgCl2 1, HEPES 10 and glucose 10. The pH was adjusted to 7.4 with NaOH and osmolarity was adjusted with sucrose to 305 mOsm. The intracellular solution contained in mM: CsF 140, ethylene glycol tetraacetic acid (EGTA)/CsOH 1/5, HEPES 10 and NaCl 10. The pH was adjusted to 7.3 with CsOH and osmolarity adjusted with sucrose to 320 mOsm. […]
(§4) The current-voltage (IV) curve was constructed with a holding potential of −80 mV followed by a pre-pulse of −100 mV for 50 ms and a series of 50 ms step pulses that ranged from −80 to 50 mV in 5 mV increments before returning to a holding potential of −80 mV. Voltage-dependence of activation was determined as normalized Nav conductance (GNa) using: GNa=INa/(Vmemb−Vrev), where Vmemb is the membrane potential and Vrev is the reversal potential for each cell. […]
(Patch clamp records ionic current or voltage across a cell membrane.)

In test [4] the target is T2, hNav1.8. The test is described as follows: Automated patch clamping (QPatch-16), hNav1.8. In kind it is cell-based. The method, then: as §2, §3, §4
Test [5] concerns burns-induced pain in mice. The test is described as follows: Burns-induced pain. The format is in vivo. To be noted: intraplantar, 3 days after burns injury. The method, then:
For behavioural assessment adult male C57BL/6J mice aged 6-8 weeks were used. Animals were housed in groups of 3 or 4 per cage, under 12 h light-dark cycles and had standard rodent chow and water ad libitum.
To induce a mild burn injury, the plantar skin of the left hind paw of mice was applied with firm pressure to a Peltier plate (Hot/Cold Plate, Ugo Basile, Comerio, Italy) set at 52.5° C. for 25 s under light isoflurane (3%) anaesthesia. Behavioural assessment (mechanical and thermal thresholds) was performed 3 days after the burns injury.
Mechanical allodynia was assessed using an electronic von Frey apparatus (MouseMet Electronic von Frey, TopCat Metrology Ltd, United Kingdom). […] The force that elicited paw withdrawal was calculated using the MouseMet Software. The paw withdrawal force (PWF) was determined from the average of three tests, separated by at least 2 min.
Mice were habituated in individual mouse runs for at least 5 min prior to testing. […] Removal of the paw and/or the probe by the investigator terminates heating, and triggers display of the withdrawal temperature on the readout, without the need for the investigator to manually stop the heating or record the temperature, until the reset button is pressed. The temperature that elicited a paw withdrawal, known as the paw withdrawal temperature (PWT), was determined by a single test.

T2 sequence (Q9Y5Y9 whole entry): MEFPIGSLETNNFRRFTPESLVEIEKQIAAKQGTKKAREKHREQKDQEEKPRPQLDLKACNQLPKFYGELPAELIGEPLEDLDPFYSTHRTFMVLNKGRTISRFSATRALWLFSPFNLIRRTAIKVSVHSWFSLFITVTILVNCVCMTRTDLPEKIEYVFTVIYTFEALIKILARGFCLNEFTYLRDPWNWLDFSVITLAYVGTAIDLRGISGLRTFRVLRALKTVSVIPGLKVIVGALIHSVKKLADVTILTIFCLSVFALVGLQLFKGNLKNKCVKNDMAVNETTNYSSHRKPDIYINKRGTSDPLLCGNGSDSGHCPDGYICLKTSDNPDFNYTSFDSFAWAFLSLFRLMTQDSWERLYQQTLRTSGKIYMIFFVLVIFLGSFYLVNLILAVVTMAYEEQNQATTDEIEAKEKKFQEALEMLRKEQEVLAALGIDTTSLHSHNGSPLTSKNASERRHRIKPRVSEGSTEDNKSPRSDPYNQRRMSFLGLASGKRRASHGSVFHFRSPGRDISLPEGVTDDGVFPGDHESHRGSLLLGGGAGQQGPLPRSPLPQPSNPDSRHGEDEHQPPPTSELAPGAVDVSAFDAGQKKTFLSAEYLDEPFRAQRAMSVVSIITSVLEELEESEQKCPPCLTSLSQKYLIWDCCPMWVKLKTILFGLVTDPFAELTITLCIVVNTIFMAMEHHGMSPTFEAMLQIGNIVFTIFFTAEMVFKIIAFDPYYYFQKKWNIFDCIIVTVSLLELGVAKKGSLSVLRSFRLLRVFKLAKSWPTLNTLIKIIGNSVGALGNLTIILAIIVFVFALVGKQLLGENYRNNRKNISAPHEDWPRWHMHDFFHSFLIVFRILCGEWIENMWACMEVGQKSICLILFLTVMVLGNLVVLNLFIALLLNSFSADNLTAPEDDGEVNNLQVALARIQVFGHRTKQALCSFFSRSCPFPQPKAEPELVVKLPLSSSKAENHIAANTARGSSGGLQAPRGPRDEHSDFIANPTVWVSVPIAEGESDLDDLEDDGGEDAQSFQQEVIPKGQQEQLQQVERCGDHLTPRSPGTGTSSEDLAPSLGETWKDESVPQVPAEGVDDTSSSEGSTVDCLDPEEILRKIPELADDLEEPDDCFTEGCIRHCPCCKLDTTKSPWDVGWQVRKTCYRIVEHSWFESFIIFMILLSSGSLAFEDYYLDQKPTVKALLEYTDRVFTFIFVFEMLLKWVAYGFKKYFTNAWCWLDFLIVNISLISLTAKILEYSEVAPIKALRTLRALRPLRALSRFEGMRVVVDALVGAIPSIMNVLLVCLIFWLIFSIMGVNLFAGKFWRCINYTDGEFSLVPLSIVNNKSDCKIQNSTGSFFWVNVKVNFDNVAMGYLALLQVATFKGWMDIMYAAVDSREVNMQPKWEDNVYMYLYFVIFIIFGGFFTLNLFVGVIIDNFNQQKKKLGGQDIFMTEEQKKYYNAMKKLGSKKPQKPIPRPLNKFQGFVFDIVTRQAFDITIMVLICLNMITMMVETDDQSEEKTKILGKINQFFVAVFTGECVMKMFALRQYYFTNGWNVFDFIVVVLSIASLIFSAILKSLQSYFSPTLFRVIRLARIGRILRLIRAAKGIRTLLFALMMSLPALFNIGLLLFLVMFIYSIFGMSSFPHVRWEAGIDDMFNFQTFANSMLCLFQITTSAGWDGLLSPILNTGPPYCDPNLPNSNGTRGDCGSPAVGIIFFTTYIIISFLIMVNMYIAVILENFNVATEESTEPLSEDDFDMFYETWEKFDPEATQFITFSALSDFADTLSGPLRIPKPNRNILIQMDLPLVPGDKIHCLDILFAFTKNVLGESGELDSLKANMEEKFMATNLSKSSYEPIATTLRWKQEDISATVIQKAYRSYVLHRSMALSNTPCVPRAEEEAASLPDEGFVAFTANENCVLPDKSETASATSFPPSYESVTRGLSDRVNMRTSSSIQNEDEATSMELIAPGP
T1 sequence (Q9NY46 whole entry): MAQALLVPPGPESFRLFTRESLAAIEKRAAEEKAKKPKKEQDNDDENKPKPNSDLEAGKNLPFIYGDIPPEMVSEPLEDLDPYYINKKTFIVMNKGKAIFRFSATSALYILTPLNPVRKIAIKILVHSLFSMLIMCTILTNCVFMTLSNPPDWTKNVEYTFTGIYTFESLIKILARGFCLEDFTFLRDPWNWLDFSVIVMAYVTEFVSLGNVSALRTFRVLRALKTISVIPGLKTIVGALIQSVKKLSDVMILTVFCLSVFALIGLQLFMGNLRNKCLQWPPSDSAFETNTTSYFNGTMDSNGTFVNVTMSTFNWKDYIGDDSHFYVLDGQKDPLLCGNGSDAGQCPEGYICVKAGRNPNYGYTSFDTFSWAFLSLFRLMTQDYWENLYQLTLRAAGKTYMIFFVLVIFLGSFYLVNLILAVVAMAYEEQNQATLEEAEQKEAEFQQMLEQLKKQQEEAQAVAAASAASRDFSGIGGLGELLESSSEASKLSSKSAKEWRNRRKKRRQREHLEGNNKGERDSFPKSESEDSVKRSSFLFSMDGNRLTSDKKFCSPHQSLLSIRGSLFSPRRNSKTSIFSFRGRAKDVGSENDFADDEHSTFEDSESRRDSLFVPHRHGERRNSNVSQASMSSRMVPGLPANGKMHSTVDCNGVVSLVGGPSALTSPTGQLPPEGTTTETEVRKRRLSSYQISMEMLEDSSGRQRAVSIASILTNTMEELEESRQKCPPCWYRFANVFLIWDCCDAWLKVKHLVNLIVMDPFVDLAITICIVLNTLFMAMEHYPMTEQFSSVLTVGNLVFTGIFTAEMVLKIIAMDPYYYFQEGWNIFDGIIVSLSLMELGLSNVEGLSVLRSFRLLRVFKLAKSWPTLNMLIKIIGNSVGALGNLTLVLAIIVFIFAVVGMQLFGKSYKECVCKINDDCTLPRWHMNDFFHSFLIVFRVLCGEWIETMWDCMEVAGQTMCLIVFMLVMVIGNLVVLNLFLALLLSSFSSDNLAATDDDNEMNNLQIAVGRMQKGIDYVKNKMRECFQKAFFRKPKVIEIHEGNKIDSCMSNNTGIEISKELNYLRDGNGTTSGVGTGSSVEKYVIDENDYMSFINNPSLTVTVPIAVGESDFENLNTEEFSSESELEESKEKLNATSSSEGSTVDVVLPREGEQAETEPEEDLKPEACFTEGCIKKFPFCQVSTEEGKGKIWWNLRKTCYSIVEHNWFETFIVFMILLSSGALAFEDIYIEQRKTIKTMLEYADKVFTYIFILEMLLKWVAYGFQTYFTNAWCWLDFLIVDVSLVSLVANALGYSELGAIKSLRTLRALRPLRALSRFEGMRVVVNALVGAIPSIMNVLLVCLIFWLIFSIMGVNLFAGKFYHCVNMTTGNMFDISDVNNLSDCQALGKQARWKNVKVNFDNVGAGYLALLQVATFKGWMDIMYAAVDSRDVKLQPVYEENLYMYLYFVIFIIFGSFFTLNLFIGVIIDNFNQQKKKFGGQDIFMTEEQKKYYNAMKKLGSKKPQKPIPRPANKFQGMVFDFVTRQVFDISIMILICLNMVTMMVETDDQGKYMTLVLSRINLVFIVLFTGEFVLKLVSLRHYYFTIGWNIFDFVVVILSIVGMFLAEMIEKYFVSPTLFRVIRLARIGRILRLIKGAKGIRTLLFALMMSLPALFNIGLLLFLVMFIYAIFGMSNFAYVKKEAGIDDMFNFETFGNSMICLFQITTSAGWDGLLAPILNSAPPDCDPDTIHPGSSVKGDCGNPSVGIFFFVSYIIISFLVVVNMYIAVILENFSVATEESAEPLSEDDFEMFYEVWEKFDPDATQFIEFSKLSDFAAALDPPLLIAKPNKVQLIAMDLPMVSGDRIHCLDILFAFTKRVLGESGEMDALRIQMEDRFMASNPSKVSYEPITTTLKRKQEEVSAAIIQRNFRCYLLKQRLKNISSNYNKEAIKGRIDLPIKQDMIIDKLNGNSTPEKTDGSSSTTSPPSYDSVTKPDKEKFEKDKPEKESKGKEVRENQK

With `CSCC[C@@H]1NC(=O)[C@H](Cc2ccc(O)cc2)NC(=O)[C@H](CCCNC(=N)N)NC(=O)[C@@H](NC(=O)[C@@H](N)CC(=O)O)CSSC[C@@H]2NC(=O)[C@@H]3CSSC[C@@H](C(=O)N[C@@H](C)C(=O)N[C@@H](Cc4c[nH]c5ccccc45)C(=O)N[C@@H](CC(=O)O)C(=O)N[C@@H](Cc4ccccc4)C(=O)N[C@H](C(=O)N[C@@H](Cc4ccccc4)C(=O)N[C@H](C(=O)O)[C@@H](C)O)[C@@H](C)O)NC(=O)[C@H](Cc4ccc(O)cc4)NC(=O)[C@H](CCCCN)NC(=O)[C@H](CCSC)NC(=O)[C@H](CCCCN)NC(=O)[C@H](CCCNC(=N)N)NC(=O)[C@H](CCCCN)NC(=O)[C@H](CSSC[C@H](NC(=O)[C@H](CC(=O)O)NC(=O)CNC(=O)[C@H](Cc4ccccc4)NC1=O)C(=O)N[C@@H](CCC(=O)O)C(=O)N[C@@H](CCCCN)C(=O)N[C@@H](CC(=O)O)C(=O)N[C@@H](CCC(=O)O)C(=O)N[C@@H](CC(=O)O)C(=O)N3)NC(=O)CNC(=O)[C@H](CC(C)C)NC(=O)[C@H](Cc1cnc[nH]1)NC(=O)[C@H](CCCCN)NC2=O` [Pnc1a], the IC50 is 8.13 µM in test [1], 26.3 µM in test [2], 0.126 µM in test [3] and 47.9 µM in test [4]. Further, the “mechanical threshold of the injured paw” value in test [5] was “no significant effect”. The “thermal threshold of the injured paw” value in test [5] is “significantly increased”.
